Results: PubChem BioAssay AID686974 (The Scripps Research Institute Molecular Screening Center, 2013)
Values belong to the compound of their own block, whether it stands above or below them. Calls of active or inactive are those of the source.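 The calls were made as follows: active = client protein degradation above 50% for Her2 or AKT on Western blot; inactive = client protein degradation below 10%.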

Columns and labels:
[1] = biological target: RAC-alpha serine/threonine-protein kinase (Homo sapiens) (UniProt P31749); test: Her2 and AKT client protein degradation, late-stage follow-up, mechanism study, cell-based, Western blot, MCF7 (AID 686974); details: 24 h, AKT, stronger effect = higher value
RAC-alpha serine/threonine-protein kinase (Homo sapiens), sequence (P31749 whole entry, looked up): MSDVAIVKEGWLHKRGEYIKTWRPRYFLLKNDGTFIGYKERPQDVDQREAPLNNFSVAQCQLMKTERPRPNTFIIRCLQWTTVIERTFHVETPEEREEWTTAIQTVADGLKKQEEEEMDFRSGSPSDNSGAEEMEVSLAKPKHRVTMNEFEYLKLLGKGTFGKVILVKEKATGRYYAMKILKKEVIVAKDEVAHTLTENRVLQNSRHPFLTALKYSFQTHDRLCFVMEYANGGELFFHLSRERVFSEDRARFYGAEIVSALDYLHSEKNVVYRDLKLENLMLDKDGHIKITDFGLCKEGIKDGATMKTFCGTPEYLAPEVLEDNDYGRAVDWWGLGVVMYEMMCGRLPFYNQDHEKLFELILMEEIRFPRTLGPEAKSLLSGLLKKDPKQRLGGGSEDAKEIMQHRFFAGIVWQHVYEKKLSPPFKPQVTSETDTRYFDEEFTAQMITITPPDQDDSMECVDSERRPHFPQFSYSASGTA

[2] = biological target: Receptor tyrosine-protein kinase erbB-2 (Homo sapiens) (UniProt P04626); test: as above; details: 24 h, stronger effect = higher value
Receptor tyrosine-protein kinase erbB-2 (Homo sapiens), sequence (P04626 whole entry, looked up): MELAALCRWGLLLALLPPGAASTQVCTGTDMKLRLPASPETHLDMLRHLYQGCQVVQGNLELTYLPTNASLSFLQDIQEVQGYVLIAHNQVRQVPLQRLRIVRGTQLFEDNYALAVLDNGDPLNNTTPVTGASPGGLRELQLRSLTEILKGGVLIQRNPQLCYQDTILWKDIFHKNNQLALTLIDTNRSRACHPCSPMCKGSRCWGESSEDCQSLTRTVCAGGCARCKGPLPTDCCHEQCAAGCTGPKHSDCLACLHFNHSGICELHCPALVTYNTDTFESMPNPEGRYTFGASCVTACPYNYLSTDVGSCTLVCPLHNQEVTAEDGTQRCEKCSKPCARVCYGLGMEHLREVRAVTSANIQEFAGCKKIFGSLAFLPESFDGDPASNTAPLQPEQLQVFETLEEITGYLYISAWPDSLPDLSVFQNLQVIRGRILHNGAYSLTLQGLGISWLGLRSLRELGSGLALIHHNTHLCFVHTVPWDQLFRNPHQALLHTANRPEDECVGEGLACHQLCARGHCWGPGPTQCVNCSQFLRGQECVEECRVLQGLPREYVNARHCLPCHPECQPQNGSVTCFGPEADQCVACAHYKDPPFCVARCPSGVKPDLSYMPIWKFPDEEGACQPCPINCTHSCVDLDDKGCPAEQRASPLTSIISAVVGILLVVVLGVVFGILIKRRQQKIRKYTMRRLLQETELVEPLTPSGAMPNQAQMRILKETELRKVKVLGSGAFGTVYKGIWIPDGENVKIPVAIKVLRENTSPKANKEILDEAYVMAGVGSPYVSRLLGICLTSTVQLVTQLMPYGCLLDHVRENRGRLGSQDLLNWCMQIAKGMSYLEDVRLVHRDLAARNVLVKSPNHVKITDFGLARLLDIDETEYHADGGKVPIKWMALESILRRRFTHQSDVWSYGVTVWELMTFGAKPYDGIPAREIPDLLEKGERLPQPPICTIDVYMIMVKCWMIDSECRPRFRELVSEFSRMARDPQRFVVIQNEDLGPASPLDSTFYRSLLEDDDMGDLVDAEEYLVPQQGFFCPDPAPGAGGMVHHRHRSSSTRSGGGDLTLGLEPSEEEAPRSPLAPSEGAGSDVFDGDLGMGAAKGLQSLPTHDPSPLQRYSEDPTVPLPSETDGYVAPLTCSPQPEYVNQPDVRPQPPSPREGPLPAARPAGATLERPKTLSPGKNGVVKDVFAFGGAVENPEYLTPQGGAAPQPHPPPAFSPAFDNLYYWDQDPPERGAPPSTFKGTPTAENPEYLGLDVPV

Compound: CC(NC(=O)c1coc(=O)c(Br)c1)C1C2CCC3CC(C2)CC31 (configuration not stated)
- client protein degradation ([1]; high dose (five times the growth IC50) 9 µM, low dose (half the growth IC50) 0.9 µM): < 10% (inactive)
- client protein degradation ([2]; Her2, high dose (five times the growth IC50) 9 µM, low dose (half the growth IC50) 0.9 µM): > 50%

Compound: CC(C)CNC(=O)c1coc(=O)c(Br)c1
- client protein degradation ([1]; high dose (five times the growth IC50) 37.5 µM, low dose (half the growth IC50) 3.8 µM): < 10% (inactive)
- client protein degradation ([2]; Her2, high dose (five times the growth IC50) 37.5 µM, low dose (half the growth IC50) 3.8 µM): > 50%

Compound: CCOc1ccc(-c2nc(CN3CCCCC3CCn3cccn3)c(C)o2)cc1 (configuration not stated)
- client protein degradation ([1]; high dose (five times the growth IC50) 111 µM, low dose (half the growth IC50) 11.1 µM): < 10% (inactive)
- client protein degradation ([2]; Her2, high dose (five times the growth IC50) 111 µM, low dose (half the growth IC50) 11.1 µM): < 10% (inactive)

Compound: CCCCCCCCOc1ccc(NC(=O)c2coc(=O)c(Br)c2)cc1
- client protein degradation ([1]; high dose (five times the growth IC50) 64.5 µM, low dose (half the growth IC50) 6.5 µM): < 10% (inactive)
- client protein degradation ([2]; Her2, high dose (five times the growth IC50) 64.5 µM, low dose (half the growth IC50) 6.5 µM): > 50%

Compound: O=C(NCCc1ccc(F)cc1)c1coc(=O)c(Br)c1
- client protein degradation ([1]; high dose (five times the growth IC50) 10.5 µM, low dose (half the growth IC50) 1.1 µM): < 10% (inactive)
- client protein degradation ([2]; Her2, high dose (five times the growth IC50) 10.5 µM, low dose (half the growth IC50) 1.1 µM): > 50%

Compound: COc1ccc(NC(=O)c2ccc(NC(=O)c3coc(=O)c(Br)c3)cc2)cc1
- client protein degradation ([1]; high dose (five times the growth IC50) 60.5 µM, low dose (half the growth IC50) 6.1 µM): < 10% (inactive)
- client protein degradation ([2]; Her2, high dose (five times the growth IC50) 60.5 µM, low dose (half the growth IC50) 6.1 µM): < 10% (inactive)

Compound: COC(=O)c1ccc2nc(NC(=O)C3CC3)sc2c1
- client protein degradation ([1]; high dose (five times the growth IC50) 246 µM, low dose (half the growth IC50) 24.6 µM): < 10% (inactive)
- client protein degradation ([2]; Her2, high dose (five times the growth IC50) 246 µM, low dose (half the growth IC50) 24.6 µM): < 10% (inactive)

Second part, the compound after the results:

- client protein degradation ([1]; high dose (five times the growth IC50) 136.5 µM, low dose (half the growth IC50) 13.7 µM): < 10% (inactive)
- client protein degradation ([2]; Her2, high dose (five times the growth IC50) 136.5 µM, low dose (half the growth IC50) 13.7 µM): > 50%
Compound: Cc1cccc(NC(=O)c2coc(=O)c(Br)c2)n1

- client protein degradation ([1]; high dose (five times the growth IC50) 114 µM, low dose (half the growth IC50) 11.4 µM): < 10% (inactive)
- client protein degradation ([2]; Her2, high dose (five times the growth IC50) 114 µM, low dose (half the growth IC50) 11.4 µM): > 50%
Compound: CCCCOc1cccc(NC(=O)c2coc(=O)c(Br)c2)c1

- client protein degradation ([1]; high dose (five times the growth IC50) 44.5 µM, low dose (half the growth IC50) 4.5 µM): < 10% (inactive)
- client protein degradation ([2]; Her2, high dose (five times the growth IC50) 44.5 µM, low dose (half the growth IC50) 4.5 µM): < 10% (inactive)
Compound: Cc1cc(NC(=O)c2coc(=O)c(Br)c2)ccc1C(C)C

- client protein degradation ([1]; high dose (five times the growth IC50) 24 µM, low dose (half the growth IC50) 2.4 µM): > 50%
- client protein degradation ([2]; Her2, high dose (five times the growth IC50) 24 µM, low dose (half the growth IC50) 2.4 µM): > 50%
Compound: O=C(NCc1ccco1)c1coc(=O)c(Br)c1

- client protein degradation ([1]; high dose (five times the growth IC50) 12 µM, low dose (half the growth IC50) 1.2 µM): > 50%
- client protein degradation ([2]; Her2, high dose (five times the growth IC50) 12 µM, low dose (half the growth IC50) 1.2 µM): > 50%
Compound: COc1ccc(NC(=O)c2coc(=O)c(Br)c2)cc1

- client protein degradation ([1]; high dose (five times the growth IC50) 17 µM, low dose (half the growth IC50) 1.7 µM): > 50%
- client protein degradation ([2]; Her2, high dose (five times the growth IC50) 17 µM, low dose (half the growth IC50) 1.7 µM): > 50%
Compound: O=C(Nc1ccc(F)cc1)c1coc(=O)c(Br)c1

- client protein degradation ([1]; high dose (five times the growth IC50) 17.5 µM, low dose (half the growth IC50) 1.8 µM): < 10% (inactive)
- client protein degradation ([2]; Her2, high dose (five times the growth IC50) 17.5 µM, low dose (half the growth IC50) 1.8 µM): > 50%
Compound: O=C(NCc1cccnc1)c1coc(=O)c(Br)c1

- client protein degradation ([1]; high dose (five times the growth IC50) 53.5 µM, low dose (half the growth IC50) 5.4 µM): < 10% (inactive)
- client protein degradation ([2]; Her2, high dose (five times the growth IC50) 53.5 µM, low dose (half the growth IC50) 5.4 µM): > 50%
Compound: CC(=O)c1ccc(NC(=O)c2coc(=O)c(Br)c2)cc1

- client protein degradation ([1]; high dose (five times the growth IC50) 147 µM, low dose (half the growth IC50) 14.7 µM): > 50%
- client protein degradation ([2]; Her2, high dose (five times the growth IC50) 147 µM, low dose (half the growth IC50) 14.7 µM): > 50%
Compound: O=C(Nc1ccccc1I)c1coc(=O)c(Br)c1
